Where two headings read alike, the source gives them in different places. Marks after values point to notes of the source that are not given here.
Legend:
[1] = Stability of isolated degradants of formula (III) fractions; type: physicochemical; settings: for compound converted: in the presence of NH4OAc, after 24 hours; for stability of freshly isolated fractions: without NH4OAc, a few days at room temperature
Experimental: Degradation products of active were isolated using semi-preparative HPLC (Zorbax SB-SN, 5 um, 9.2×250 mm; 20% ACN/H2O with 0.1% formic acid as mobile phase, 4 mL/min) with the aforementioned open dish degradation sample. Fractions containing these impurities were neutralized with 0.1 M NH4OAc before drying under vacuum to prevent possible decomposition.
Impurities 3 and 4 share the same molecular weight of 323 with almost identical MS fragmentation pattern. After the isolation and drying process, it was noticed that impurities 3 and 4 were converted to impurities 1 and 2 respectively (by HPLC retention time, MS data and ^1H NMR spectrum).
However, in the presence of NH4OAc, almost 50% of the compounds were converted after 24 hours. Furthermore, it was observed that upon drying under vacuum, Degradants III-c and III-d were converted to Degradants III-a and III-b independent of the presence of NH4OAc. Because the molecular formula difference between Degradants III-c and III-a was one oxygen atom as measured by HR-MS, it was concluded that Degradants […] and III-d were a diasteromeric pair of 4-hydroperoxy transnorsertraline. The conversions from impurity 3 and Degradant III-d to Degradants III-a and III-b may be by a decomposition process of hydroperoxides.

[2] = Moisture content by coulometric Karl Fischer titration (KF); type: physicochemical
Experimental: (§1) Each salt was analyzed by coulometric titration using an EM Scientific Aquastar C3000 titrator to determine water content. […] Each salt was analyzed using a Perkin Elmer TGA 7 Thermal Gravimetric Analyzer (TGA). […] Moisture sorption isotherms for each salt were generated using the VTI SGA-100 Symmetric Vapor Sorption Analyzer. Samples were run as received without pre-analysis drying. Equilibrium criteria were the lesser of 0.01 wt % change in 5 minutes or 180 minutes at each relative humidity (RH) step. […] Analysis was repeated for each sample in consecutive analyses (sample was not removed from analyzer). Sample sizes ranged from 18 mg to 35 mg.

[3] = Thermal gravimetric analysis (TGA) weight loss; type: physicochemical; settings: heated 25° C. to 325° C. at 10° C./min
Experimental: The sixteen salts of transnorsertraline of Example 6.14 were analyzed for moisture content and hygroscopicity. Each salt was analyzed by coulometric titration using an EM Scientific Aquastar C3000 titrator to determine water content. Sample size ranged from 18 mg to 134 mg. Each salt was analyzed using a Perkin Elmer TGA 7 Thermal Gravimetric Analyzer (TGA). […] Moisture sorption isotherms for each salt were generated using the VTI SGA-100 Symmetric Vapor Sorption Analyzer. Samples were run as received without pre-analysis drying. Equilibrium criteria were the lesser of 0.01 wt % change in 5 minutes or 180 minutes at each relative humidity (RH) step. Temperature was fixed at 25° C. and the relative humidity steps (25 to 95% to 25%) were in 5% increments. Analysis was repeated for each sample in consecutive analyses (sample was not removed from analyzer). Sample sizes ranged from 18 mg to 35 mg.

[4] = VTI moisture sorption isotherm (hygroscopicity); type: physicochemical; settings: for VTI Adsorp. (% wt gain 25 to 95% RH) / VTI Desorp. (% wt loss 95 to 25% RH): 25° C.
Experimental: as §1

[5] = Solubility of transnorsertraline salts in de-ionized water (HPLC); settings: saturated solution in de-ionized water
Experimental: For each salt, saturated solutions with excess solids in deionized water were prepared in 20 mL clear glass scintillation vials with screw caps. All samples were shaken at 300 rpm at ambient conditions for up to nine days until equilibrium was achieved. Solubility was determined using a HPLC method (Table 5).

[6] = Solubility of transnorsertraline salts in aqueous buffer systems (SGF, acetate buffer pH 4.5, SIF; HPLC); type: physicochemical
Experimental: Saturated solutions with excess solids were prepared in 20 mL clear glass scintillation vials. Simulated gastric fluid (pH 1.0, ˜0.1N HCl, 0.03M NaCl, no enzymes), simulated intestinal fluid (pH 6.8, 0.05M KH2PO4, ˜0.02N NaOH, no enzymes), and acetate buffer (pH 4.5, 0.02M sodium acetate, 0.03M acetic acid) were prepared in accordance with USP28 (USP28 Test Solutions p2855, Volumetric Solutions p2863). […] Solubility was determined using a HPLC method.

[7] = Polymorphic conversion of anhydrous transnorsertraline hydrochloride to hydrate in aqueous media, in-situ Raman monitoring; type: physicochemical
Experimental: The study of the conversion of anhydrous transnorsertraline hydrochloride to the hydrate form in aqueous media was investigated, using in-situ Raman monitoring.
Raman spectroscopy was performed using a Kaiser Optical Systems Inc. dispersive RamanRXN3 for on-line or in-situ reaction monitoring. The RamanRXN3 system uses an excitation wavelength of 785 nm, with an external cavity-stabilized, diode laser. All spectra were acquired using a ¼″ immersion probe with approximately 100 mW of laser power at the tip of the probe. Different exposure times and numbers of spectrum accumulations were used for the analysis of the two dry samples. An exposure time of 4 seconds with 2 accumulations was used for the monitoring of all form conversions experiments. Wavelength and laser wavelength calibration were performed using an internal neon standard, and diamond Raman shift standard, respectively. The intensity calibration was performed using a Kaiser Raman calibration accessory.
Regions 660-715 cm^−1 and 1430-1490 cm^−1 in particular show little overlapping of the peaks characteristic of each form. Experimental results confirmed that no peaks in the regions […] and 1430-1490 cm^−1 were likely to overlap with peaks of interest to follow the conversion between the two crystalline forms of transnorsertraline hydrochloride.
The conversion of anhydrous transnorsertraline hydrochloride to the monohydrate form was monitored in water. […] Based on the peak intensity ratio I(677 cm^−1)/I(695 cm^−1), an induction time of approximately 1.1 hour was seen before the beginning of the conversion. The end of the conversion was estimated at approximately 2 hours from the beginning of the slurry. […] XRPD analysis of the solids collected at the end of the Raman monitoring of the conversion (after approximately 2 h 10 min) was consistent with the hydrate form, with a small amount of anhydrous form detectable. […] Additionally, the Raman limit of detection of the anhydrous form in the mixture was not estimated.
The conversion of anhydrous transnorsertraline hydrochloride to the hydrate form in water, simulated gastric fluid (SGF) and simulated intestinal fluid (SIF) without enzymes, and 0.1N HCl was monitored at 37° C.
Overall, similar results were obtained in water and simulated gastric fluid, with the start of the form conversion detected at approximately 1.3 hours, with a slightly faster conversion in simulated gastric fluid compared to water. The complete conversion was estimated to occur within 3 to 4 hours in the two media. […] XPRD analysis of the solids collected at the end of each experiments were consistent with the hydrate form, with or without some anhydrous form present. The small amount of anhydrous form may be due to residual solids on the walls of the vessel at the time of the slurry.

[8] = Stability of transnorsertraline HCl blends with mannitol lots containing mannose, amount of degradant II (open dish 30° C./65% RH, HPLC); type: physicochemical
From the text: The amount of conjugate degradant leveled off at about two weeks and then slightly declined as stress time increases. Formation of the degradant of formula II also depends on the temperature.
The amount of mannose in mannitol appeared to be the controlling factor, not the type of mannitol used in transnorsertraline HCl formulation (i.e., crystalline vs. spray dried). This was later confirmed from the results obtained using recrystallized mannitol samples spiked with mannose in the stability study of transnorsertraline HCl formulations.
Three recrystallized mannitol lots spiked with mannose were selected for further study based on their % mannose values. Crystalline mannitol and spray dried mannitol were used as controls. The recrystallized spray dried mannitol lot was also used in the study to determine whether the type of mannitol used (crystalline vs. spray dried) was significant. Transnorsertraline HCl blends were made using the selected mannitol lots and placed at 30° C./65% RH under open dish conditions and analyzed initially and then at 2, 4 and 6 weeks using HPLC.

[9] = Solid stability of transnorsertraline salts (HPLC impurities); type: physicochemical; settings: HDPE container
Experimental: Salts of transnorsertraline were tested for solid stability under various conditions. Solid samples of the HCl salt were placed in double-polyehylene lined high density polyethylene (HDPE) containers closed with HDPE lids and stored at 25° C./60% relative humidity or 40° C./75% relative humidity. Samples were analyzed by HPLC.

[10] = repeated consecutive analysis (second line)
[11] = saturated solution in 0.05M Acetate Buffer (pH 4.5)
[12] = saturated solution in Simulated Gastric Fluid
[13] = saturated solution in Simulated Intestinal Fluid
[14] = SIF without enzymes, 37° C., large scale
[15] = SIF without enzymes, 37° C., larger scale
[16] = SIF without enzymes, 37° C., small scale
[17] = first analysis, listed as L-malate lot 1
[18] = first analysis, listed as L-malate lot 2
[19] = first analysis, listed as L-malate lot 3

Row | compound converted [1] | stability of freshly isolated fractions [1] | Initial KF (% H2O) [2] | TGA (% wt loss) [3] | VTI Adsorp. (% wt gain 25 to 95% RH) ([4]; first analysis) | VTI Desorp. (% wt loss 95 to 25% RH) ([4]; first analysis) | VTI Adsorp. (% wt gain 25 to 95% RH) [4, 10] | VTI Desorp. (% wt loss 95 to 25% RH) [4, 10] | pH [5] | Solubility in Freebase Equivalents mgA/mL ([6]; pH 4.5) | Solubility in Freebase Equivalents mgA/mL ([6]; pH 6.8) | pH [6, 11] | pH [6, 12] | pH [6, 13] | form conversion completed ([7]; 0.1N HCl, 37° C.) | form conversion completed ([7]; SGF without enzymes, 37° C.) | start of form conversion to hydrate ([7]; SGF without enzymes, 37° C.) | end of form conversion [7, 14] | start of form conversion to hydrate [7, 15] | end of form conversion [7, 16] | Molecule | also measured
1 | ~50% | relatively stable | – | – | – | – | – | – | – | – | – | – | – | – | – | – | – | – | – | – | N[C@@H]1CCC(OO)(c2ccc(Cl)c(Cl)c2)c2ccccc21 (single isomer, unassigned) [Degradant-III-c, 4-hydroperoxy transnorsertraline] | –
2 | – | – | 0.02 % H2O | 0.00 % wt loss | 0.01 % wt gain | 0.02 % wt loss | 0.01 % wt gain | 0.02 % wt loss | 5.32 | 2.15 mgA/mL | 0.24 mgA/mL | 4.58 | 1.28 | 6.75 | approximately 4 hours | 3 to 4 h | approximately 1.3 hours | ~36 h | ~19 h | approximately 12.5 hours | transnorsertraline hydrochloride [HCl] | VTI adsorption, weight gain ([4]; second lot, from 25 to 95% relative humidity): 0.01%; VTI desorption, weight loss ([4]; second lot, from 95% to 25% relative humidity): 0.01%; Solubility in Freebase Equivalents mgA/mL [6]: 0.13 mgA/mL; induction time of form conversion ([7]; 0.1N HCl, 37° C., larger scale): 2 to 2.3 h; start of form conversion to hydrate [7, 16]: ~10 h; form conversion completed ([7]; water, 37° C.): 3 to 4 h; start of form conversion to hydrate ([7]; water, 37° C.): approximately 1.3 hours
3 | – | – | – | – | – | – | – | – | – | – | – | – | – | – | – | – | – | – | – | – | OCC1OC(NC2CCC(c3ccc(Cl)c(Cl)c3)c3ccccc32)C(O)C(O)C1O (stereo not shown) [degradant of formula II] | behaviour of degradant at higher temperature [8]: underwent decomposition
4 | – | – | – | – | – | – | – | – | – | – | – | – | – | – | 3 to 4 h | 3 to 4 h | approximately 1.3 hours | ~36 h | ~19 h | approximately 12.5 hours | transnorsertraline hydrochloride anhydrate | impurities (HPLC) ([9]; 25° C./60% RH and 40° C./75% RH, at least 6 months): less than 0.05%; impurities (HPLC) ([9]; 25° C./60% relative humidity, 2 years): less than 0.1%; start of form conversion to hydrate ([7]; 0.1N HCl, 37° C.): ~2 h; start of form conversion to hydrate [7, 16]: approximately 10 hours; induction time before the beginning of the conversion to monohydrate ([7]; slurry in water, Raman peak ratio I(677)/I(695)): approximately 1.1 hour; end of the conversion to monohydrate ([7]; slurry in water, from the beginning of the slurry): approximately 2 hours; form conversion completed ([7]; water, 37° C.): 3 to 4 h; start of form conversion to hydrate ([7]; water, 37° C.): approximately 1.3 hours
5 | ~50% | relatively stable | – | – | – | – | – | – | – | – | – | – | – | – | – | – | – | – | – | – | N[C@@H]1CCC(OO)(c2ccc(Cl)c(Cl)c2)c2ccccc21 (single isomer, unassigned) [III-d, 4-hydroperoxy transnorsertraline] | –
6 | – | – | 0.05 % H2O | 0.07 % wt loss | 0.08 % wt gain | 0.08 % wt loss | 0.06 % wt gain | 0.06 % wt loss | 4.15 | 1.59^b mgA/mL | 0.38 mgA/mL | 4.42 | 1.15 | 6.68 | – | – | – | – | – | – | Transnorsertraline L-Malate | Initial KF (% H2O) ([2]; listed as L-malate lot 1): 0.05 % H2O; Initial KF (% H2O) ([2]; listed as L-malate lot 2): 0.08 % H2O; Initial KF (% H2O) ([2]; listed as L-malate lot 3): 0.04 % H2O; TGA (% wt loss) ([3]; listed as L-malate lot 1): 0.08 % wt loss; VTI Adsorp. (% wt gain 25 to 95% RH) [4, 17]: 0.08 % wt gain; VTI Desorp. (% wt loss 95 to 25% RH) [4, 17]: 0.08 % wt loss; VTI Adsorp. (% wt gain 25 to 95% RH) [4, 18]: 0.06 % wt gain; VTI Desorp. (% wt loss 95 to 25% RH) [4, 18]: 0.07 % wt loss; VTI Adsorp. (% wt gain 25 to 95% RH) [4, 19]: 5.31 % wt gain; VTI Desorp. (% wt loss 95 to 25% RH) [4, 19]: 5.23 % wt loss; VTI Adsorp. (% wt gain 25 to 95% RH) ([4]; repeated consecutive analysis (second line), listed as L-malate lot 1): 0.06 % wt gain; VTI Adsorp. (% wt gain 25 to 95% RH) ([4]; repeated consecutive analysis (second line), listed as L-malate lot 2): 0.07 % wt gain; moisture adsorbed more than other L-malate lots ([4]; from 25 to 95% relative humidity): > 5%; Solubility in Freebase Equivalents mgA/mL ([6]; pH 1): 0.08^b mgA/mL

From patent US8957114B2, “Formulations, salts and polymorphs of transnorsertraline and uses thereof” (Sunovion Pharmaceuticals Inc., priority 2009, dated 2015)
